Article PMC4655192 (Neuropharmacology, 2015)

Columns and labels:
MOR = conditions: brain homogenates, inverse agonists; ref Wang et al., 2004; cited from earlier work
KOR = KOR (Mus musculus, UniProt P33534); assay: Antagonism of U69,593-stimulated [35S]GTPγS binding in WT striatum; assay type: biochemical

| SMILES | suppression of MOR basal signaling activity (MOR) | IC50 (KOR) | blockade of U69,593 stimulated G protein activation (KOR; antagonist 10 μM, increasing concentrations of U69,593, WT) | % competition (KOR; vs 10 μM U69,593, WT striatum, n=3) |
| --- | --- | --- | --- | --- |
| O=C1/C(=C/c2ccccc2)C[C@@]2(O)[C@H]3Cc4ccc(O)c5c4[C@@]2(CCN3CC2CC2)[C@H]1O5 [BNTX] | less than 10% |  |  |  |
| Oc1ccc2c3c1O[C@H]1c4[nH]c5c(c4C[C@@]4(O)[C@@H](C2)N(CC2CC2)CC[C@]314)C[C@@]1(O)[C@H]2Cc3ccc(O)c4c3[C@@]1(CCN2CC1CC1)[C@H]5O4 [NorBNI, Norbinaltorphimine] |  | 6 ± 1.6 nM | fully blocks | 99 ± 7% |
